In patent US20190002480A1, “Silane-Containing Heterocyclic Compounds and Methods of Use Thereof for the Treatment of Viral Diseases” (Merck Sharp & Dohme Corp., priority 2015, published 2019):
Where two headings read alike, the source gives them in different places.

Columns and labels:
HCV replicon GT1a_Q30R = assay: Cell-based HCV replicon assay, GT1a Q30R; details: Hepatitis C virus, 72 h, read-out: GT1a_Q30R EC90
Description: (§1) To measure cell-based anti-HCV activity of compounds of the present invention, two complimentary assays were employed using various replicons. In the first assay (“Replicon Assay A”), replicon cells were seeded at 2000 cells/well in 384-well 384-well flat bottom tissue culture treated clear bottom plate (Corning 3707) in the presence of the test compound. Various concentrations of test compound, typically in 10 serial dilutions, were added to the assay mixture, with the starting concentration ranging from 333.3 nM to […]. The final concentration of DMSO was 0.5%. Fetal bovine serum was 5%, in the assay media. Cells were harvested on day 3 by removing media and washing the cells with a suitable wash buffer. The cells are lysed with the addition of 1× Qiagen lysis buffer (Cat #1062731). The replicon RNA level was measured using real time PCR (TaqMan® EZ RT-PCR, Applied Biosystems 403028) with the following primers and probes: […]
(§2) Cyclophilin RNA was used as endogenous control and was amplified in the same reaction as NS5B (multiplex PCR). The real-time RT-PCR reactions were run on ABI PRISM 7900HT Sequence Detection System using the following program: 50° C. for 2 minutes, 60° C. for 30 minutes, 95° C. for 5 minutes, 40 cycles of 94 C for 20 sec, 55 C for 1 minutes.
(§3) The amount of HCV replicon RNA per cell is quantified using a linear regression curve for a known nanogram (ng) amount of HCV replicon total RNA. This is established by plotting the Cycle Threshold values (Ct) from the Neo probe and primer set versus the log (ng) for each HCV replicon total RNA standard. The amount of HCV RNA for each replicon sample is calculated by taking the sample's Ct value, minus the line intercept, divided by the slope of the line. Similarly, the amount of Cyclophilin mRNA per cell is also quantified using a linear regression curve for a known nanogram (ng) amount of HCV replicon total RNA. Again, this is established by plotting the Cycle Threshold values (Ct) from the Cyclophilin probe and primer set versus the log (ng) for each HCV replicon total RNA standard.
(§4) In an alternate assay (“Replicon Assay B”), 1000 cells were seeded per well in a 384-well collagen coated black plate from Greiner bio-one (Cat #781946) in 5% FBS. Inhibitors of this invention were added at 24 h post-seeding, and the plates were incubated for 3 days. Cells were subsequently lysed with Qiagen lysis buffer (Cat #1062731) to extract the RNA. HCV replicon RNA level was measured by real-time PCR using the RNA-to-CT kit from Applied Biosystem (Cat #4392656) and genotype-specific primers and probes. The amplicon was located within NS5B. The sequence of the PCR primers are as follows: 5B.2F, ATGGACAGGCGCCCTGA (SEQ. ID NO. 1); 5B.2R, […] (SEQ. ID NO. 2); the probe sequence was FAM-labeled CACGCCATGCGCTGCGG (SEQ. ID NO. 3). To detect genotype 1A the primer 1A F, TGCGGAACCGGTGAGTACA and 1A R, […] were used; the probe sequence was FAM-[…].
(§5) The real-time RT-PCR reactions were run on ABI PRISM 7900HT or Viia7 Sequence Detection System using the following program: 48° C. for 30 minutes, 95 C for 10 minutes, 40 cycles of 95 C for 15 sec, 60 C for 1 minutes. The 50% effective concentration (EC50) was the drug concentration necessary to achieve an increase in the cycle threshold (CT) of 1 over the projected baseline CT. The EC90 was the drug concentration necessary to achieve an increase in CT of 3.2 over the projected baseline CT.

HCV replicon GT1a_Y93H = assay: Cell-based HCV replicon assay, GT1a Y93H; details: Hepatitis C virus, 72 h, read-out: GT1a_Y93H EC90
Description: as §1, §2, §3, §4, §5

HCV replicon GT1a_L31V = assay: Cell-based HCV replicon assay, GT1a L31V; details: Hepatitis C virus, 72 h, read-out: GT1a_L31V EC90
Description: as §1, §2, §3, §4, §5

HCV replicon GT3a_WT = assay: Cell-based HCV replicon assay, GT3a WT; details: Hepatitis C virus, 72 h; replicon RNA level by real-time PCR, 3 days
Description: as §1, §2, §3, §4, §5

HCV replicon GT2b_31M = assay: Cell-based HCV replicon assay, GT2b 31M; details: Hepatitis C virus, 72 h, read-out: GT2b_31M EC90
Description: as §1, §2, §3, §4, §5

HCV replicon GT6 = assay: Cell-based HCV replicon assay, GT6; details: Hepatitis C virus, GT6, 72 h; replicon RNA level by real-time PCR, 3 days
Description: as §1, §2, §3, §4, §5

HCV replicon GT2a = assay: Cell-based HCV replicon assay, GT2a; details: Hepatitis C virus, 72 h, read-out: GT2a EC90
Description: as §1, §2, §3, §4, §5

HCV replicon GT5 = assay: Cell-based HCV replicon assay, GT5; details: Hepatitis C virus, GT5, 72 h; replicon RNA level by real-time PCR, 3 days
Description: as §1, §2, §3, §4, §5

HCV replicon GT3a_Y93H = assay: Cell-based HCV replicon assay, GT3a Y93H; details: Hepatitis C virus, 72 h, read-out: GT3a_Y93H EC90
Description: as §1, §2, §3, §4, §5

HCV replicon GT1b_WT = assay: Cell-based HCV replicon assay, GT1b WT; details: Hepatitis C virus, 72 h; replicon RNA level by real-time PCR, 3 days; read-out: GT1b_WT EC90
Description: as §1, §2, §3, §4, §5

[1] = replicon RNA level by real-time PCR, 3 days

Compound | EC90 (HCV replicon GT1a_Q30R) [nM] | EC90 (HCV replicon GT1a_Y93H) [nM] | EC90 (HCV replicon GT1a_L31V) [nM] | EC90 (HCV replicon GT3a_WT) [nM] | EC90 (HCV replicon GT2b_31M) [nM] | EC90 (HCV replicon GT6) [nM] | EC90 (HCV replicon GT2a) [nM] | EC90 (HCV replicon GT5) [nM] | EC90 (HCV replicon GT3a_Y93H) [nM] | EC90 (HCV replicon GT1b_WT) [nM] | EC90 (HCV replicon GT2a; [1]) [nM]
COC(=O)N[C@H](C(=O)N1CCC[C@H]1c1ncc(-c2cc(F)c3c(c2)O[C@@H](c2cnc(C4CC4)s2)n2c-3cc3cc(-c4cnc([C@@H]5C[Si](C)(C)CN5C(=O)[C@@H](NC(=O)OC)C(C)C)[nH]4)ccc32)[nH]1)C(C)C [Compound 1] | 0.0193 | 0.231 | 0.0568 | 1.77 | 2.43 | 0.0059 | 0.00278 | 0.0056 | 393 |  | 
COC(=O)NC(C(=O)N1C[Si](C)(C)C[C@H]1c1ncc(-c2ccc3c(c2)cc2n3[C@H](c3cnc(C4CC4)s3)Oc3cc(-c4cnc([C@@H]5CCCN5C(=O)[C@@H](NC(=O)OC)C(C)C)[nH]4)cc(F)c3-2)[nH]1)C1CCOCC1 (stereo partly shown) [Compound 2] | 0.0043 | 0.062 | 0.003 | 0.17 | 0.231 | 0.0044 |  | 0.0041 | 168 |  | 
CNC(C(=O)N1C[Si](C)(C)C[C@H]1c1ncc(-c2ccc3c(c2)cc2n3[C@H](c3cnc(C4CC4)s3)Oc3cc(-c4cnc([C@@H]5CCCN5C(=O)[C@@H](NC(=O)OC)C(C)C)[nH]4)cc(F)c3-2)[nH]1)c1ccccc1 (stereo partly shown) [Compound 5] | 0.0155 | 0.33 | 0.0359 | 0.257 | 0.378 | 0.0088 |  | 0.0086 | 110 | 0.0021 | 
COC(=O)NC(C(=O)N1CCC[C@H]1c1ncc(-c2ccc3c(c2)cc2n3[C@H](c3cnc(C4CC4)s3)Oc3cc(-c4cnc([C@@H]5C[Si](C)(C)CN5C(=O)[C@H](N)c5ccccc5)[nH]4)cc(F)c3-2)[nH]1)C(C)C (stereo partly shown) [Compound 10] | 0.387 | 4.28 | 0.859 | 5.48 | 12 | 0.008 |  | 0.0139 | 126 | 0.00142 | 0.00246
CN[C@@H](C(=O)N1C[Si](C)(C)C[C@H]1c1ncc(-c2cc(F)c3c(c2)O[C@@H](c2cnc(C4CC4)s2)n2c-3cc3cc(-c4cnc([C@@H]5CCCN5C(=O)C(NC(=O)OC)C(C)C)[nH]4)ccc32)[nH]1)c1ccccc1 (stereo partly shown) [Compound 11] | 0.0318 | 0.933 | 0.0963 | 0.347 | 0.705 | 0.0066 |  | 0.0098 | 74 | 0.00154 | 0.001
COC(=O)N[C@H](C(=O)N1CCC[C@H]1c1ncc(-c2cc(F)c3c(c2)O[C@@H](c2cnc(C4CC4)s2)n2c-3cc3cc(-c4cnc([C@@H]5C[Si](C)(C)CN5C(=O)C(N)c5ccccc5)[nH]4)ccc32)[nH]1)C(C)C (stereo partly shown) [Compound 12] | 0.0776 | 0.334 | 0.149 | 0.036 | 0.061 | 0.0863 |  | 0.0144 | 155 | 0.00141 | 0.00152
COC(=O)N[C@H](C(=O)N1CCC[C@H]1c1ncc(-c2cc(F)c3c(c2)O[C@@H](c2ccc(C4CC4)s2)n2c-3cc3cc(-c4cnc([C@@H]5C[Si](C)(C)CN5C(=O)[C@@H](N)c5ccccc5)[nH]4)ccc32)[nH]1)C(C)C [Compound 18] | 0.0372 | 1.22 | 0.0681 | 0.027 | 0.062 | 0.0084 |  | 0.0068 | 206 | 0.00111 | 
CNC(C(=O)N1C[Si](C)(C)C[C@H]1c1ncc(-c2ccc3c(c2)cc2n3[C@H](c3ccc(C4CC4)s3)Oc3cc(-c4cnc([C@@H]5CCCN5C(=O)[C@@H](NC(=O)OC)C(C)C)[nH]4)cc(F)c3-2)[nH]1)c1ccccc1 (stereo partly shown) [Compound 19] | 0.0053 | 0.219 | 0.0106 | 0.056 | 0.092 | 0.0047 |  | 0.0048 | 109 |  | 
